In the data set the test system is U2OS. The data set is described as follows: Cytotoxic effect on human U2OS cells transfected with Tau0N4R-TM-tGFP at 25 to 100 uM by fluorescence based microscopy. In kind it is toxicity, cell-based. The conditions noted are these: dose 25-100 µM.

Consider `c1ccc(CNc2nc(Nc3cc(C4CC4)[nH]n3)c3sccc3n2)cc1`, for which the Activity entry is “Toxic”.

Source of the values: ChEMBL document CHEMBL5154674, “ARN25068, a versatile starting point towards triple GSK-3β/FYN/DYRK1A inhibitors to tackle tau-related neurological disorders” (Eur J Med Chem, 2022).
